In brackets after ≈: the same amount, converted by molar mass. Where two headings read alike, the source gives them in different places.
Key:
[1] = system: liver of CCl4-treated mice; conditions: cited from earlier work
[2] = system: MDA-MB-231-xenografted mouse model; conditions: cited from earlier work
[3] = system: mouse B16 melanoma model; conditions: cited from earlier work; for progression of melanoma: mouse B16 melanoma model, with enhanced CTL responses
[4] = Solubility of EW-7197 in PEG/poloxamer formulations (5° C. and 25° C.); type: physicochemical; conditions: formulations containing 25% PEG4000 and 10% poloxamer 407
Procedure: After confirming that the formulation was suspended at each temperature, the suspension was filtered. The EW-7197 content of the filtrate was measured by HPLC.

[5] = system: adhesion bands mouse model; conditions: cited from earlier work
[6] = system: 4T1 orthotopic-grafted mice; conditions: cited from earlier work
[7] = system: Col8a2 knock-in mice; conditions: cited from earlier work
[8] = system: rat esophagus; conditions: after SEMS placement in the rat esophagus; cited from earlier work
[9] = Solubility of EW-7197 at various pH values; type: physicochemical; conditions: thermodynamic from solid
Source text: In order to use EW-7197 for treating or preventing TFG-β signaling related ocular diseases, postsurgical peritoneal adhesions, postsurgical anastomotic strictures, hypertrophic scar, or keloid in human, formulation development of an aqueous solution containing appropriate amounts of EW-7197 is needed.

[10] = system: peritoneal adhesions rat model; conditions: dose-dependent; cited from earlier work
[11] = system: kidney of mice with unilateral ureteral obstruction; conditions: cited from earlier work
[12] = system: mouse model of ulcerative colitis; conditions: cited from earlier work
[13] = system: CML-affected mice; conditions: combined with ponatinib, compared to ponatinib alone; cited from earlier work
[14] = system: MMTV/c-Neu mice; conditions: cited from earlier work
[15] = Effect of metal ion on thermal stability of EW-7197 (40° C.); type: physicochemical; conditions: 100 ppm aluminum ions or iron ions, with or without EDTA, PE bottles
Procedure: After the preparation of each formulation, the formulation was filtered. The filtrate was filled into a PE bottle, and stored in a thermostatic chamber (40° C.).
In this study, the final concentration of aluminum ions or iron ions was 100 ppm, and the PE ophthalmic bottles were used as containers.

[16] = system: liver of bile duct ligated rats; conditions: cited from earlier work
[17] = system: lung of bleomycin-treated mice; conditions: cited from earlier work
[18] = Solubility of EW-7197 with various solubilizing agents (4° C. and 25° C.); type: physicochemical; conditions: for EW-7197 dissolved: 1% of each surfactant, boric acid/sodium borate pH7.5
Source text: The buffer solution used in this study was 0.9% boric acid/0.1% sodium borate (pH7.5). […] After confirming that the formulations were suspended at each temperature, each formulation was filtered.

[19] = Photostability of EW-7197 in buffer solutions (ultraviolet and visible light); type: physicochemical; conditions: solution left in a room for a whole day under fluorescent lighting (about 1000 lx per hour)
Procedure: The formulations used in the photostability test are the same formulations (excluding A13, A16, A19, and A22) used for evaluation of thermal stability shown in Table 4. After preparation, each formulation was filtered. About 3 mL of the filtrate was filled in a glass ampule, and illuminated with ultraviolet light of 50 W·h/m^2 and visible light of 300,000 lx·hr by a photostability test chamber. […] Generally, illumination under white fluorescent lighting is about 1000 lx per hour. […] Therefore, EW-7197 needs to be stored in light shielded conditions.

[20] = system: rabbit PVR trauma model; conditions: intravitreal injection; cited from earlier work
[21] = system: laser-induced CNV in retina of mice; conditions: day 14 after laser-induced CNV formation, vs PBS treated control (p<0.05, n=5 per group); cited from earlier work
[22] = system: human lens epithelial cells line SRA01/04; conditions: SRA01/04 cells, nontoxic concentrations; cited from earlier work
[23] = system: TFG-β2-treated trabecular meshwork cell cultures; conditions: cited from earlier work
[24] = system: rabbit GFS model; conditions: cited from earlier work
[25] = system: TFG-β2-treated perfused human anterior segments; conditions: cited from earlier work
[26] = system: rabbit model of trabeculectomy; conditions: cited from earlier work

In the case of `Cc1cccc(-c2[nH]c(CNc3ccccc3F)nc2-c2ccc3ncnn3c2)n1` [EW-7197, 2-fluoro-N-((5-(6-methylpyridin-2-yl)-4-([1,2,4]triazolo[1,5-a]pyridin-6-yl)-1H-imidazol-2-yl)methyl)aniline], the “expression of collagen, aSMA, fibronectin, 4-hydroxy-2,3-nonenal, and integrins” value (shortened to “expression of collagen, aSMA”) [1] is given as “decreases”, the “paclitaxel-induced epithelial-mesenchymal transition (EMT) and cancer stem-like cells properties” value [2] is given as “suppresses” and the progression of melanoma [3] is given as “suppress”. The “efficacy compared with LY-2157299” value ([3]; oral EW-7197 2.5 mg/kg once daily vs LY-2157299 75 mg/kg bid) was “more effective”, the “solubility of EW-7197” value [4] was “about 0.125%” and the “frequency and stability of adhesion bands” value [5] was “prevents”. For the same molecule, the CTL activity [6] was “enhanced”, the “Smad/TGF-β signaling, cell migration, invasion, and lung metastasis” value [6] was “inhibits” and the fibronectin expression ([7]; 0.004%, 0.02%, and 0.1%, dose-dependent) was “suppresses”. The “decrease in corneal endothelial cells and/or corneal endothelial disorders represented by overexpression of ECM” value ([7]; 0.02% eye drop administration) was “effectively suppresses”, the granulation tissue formation [8] was “suppresses” and the solubility ([9]; 0.1N NaOH, pH 12.86, aqueous buffer, pH 12.86, 0.1N NaOH, pH after equilibration 12.53, read-out: Solubility Average (n = 2)) was 437 µg/mL (≈ 1090 µM). For the same molecule, the solubility ([9]; 0.1N NaOH, pH 12.86, aqueous buffer, pH 12.86, 0.1N NaOH, pH after equilibration 12.53, read-out: Solubility Trial 1) was 396 µg/mL (≈ 991 µM), the solubility ([9]; 0.1N NaOH, pH 12.86, aqueous buffer, pH 12.86, 0.1N NaOH, pH after equilibration 12.53, read-out: Solubility Trial 2) was 478 µg/mL (≈ 1200 µM) and the solubility ([9]; citrate buffer, pH 3, aqueous buffer, pH 3.0, Citrate buffer, pH after equilibration 3.30, read-out: Solubility Average (n = 2)) was 1010 µg/mL (≈ 2540 µM). For the same molecule, the solubility ([9]; citrate buffer, pH 3, aqueous buffer, pH 3.0, Citrate buffer, pH after equilibration 3.30, read-out: Solubility Trial 1) was 1000 µg/mL (≈ 2500 µM), the solubility ([9]; citrate buffer, pH 3, aqueous buffer, pH 3.0, Citrate buffer, pH after equilibration 3.30, read-out: Solubility Trial 2) was 1030 µg/mL (≈ 2580 µM) and the solubility ([9]; citrate buffer, pH 4, aqueous buffer, pH 4.0, Citrate buffer, pH after equilibration 4.16, read-out: Solubility Average (n = 2)) was 105 µg/mL (≈ 263 µM). The solubility ([9]; citrate buffer, pH 4, aqueous buffer, pH 4.0, Citrate buffer, pH after equilibration 4.16, read-out: Solubility Trial 1) was 110 µg/mL (≈ 275 µM), the solubility ([9]; citrate buffer, pH 4, aqueous buffer, pH 4.0, Citrate buffer, pH after equilibration 4.16, read-out: Solubility Trial 2) was 100 µg/mL (≈ 250 µM) and the solubility ([9]; citrate buffer, pH 5, aqueous buffer, pH 5.0, Citrate buffer, pH after equilibration 4.90, read-out: Solubility Average (n = 2)) was 20 µg/mL (≈ 50.1 µM). For the same molecule, the solubility ([9]; citrate buffer, pH 5, aqueous buffer, pH 5.0, Citrate buffer, pH after equilibration 4.90, read-out: Solubility Trial 1) was 19 µg/mL (≈ 47.6 µM), the solubility ([9]; citrate buffer, pH 5, aqueous buffer, pH 5.0, Citrate buffer, pH after equilibration 4.90, read-out: Solubility Trial 2) was 21 µg/mL (≈ 52.6 µM) and the solubility ([9]; hydrochloric acid buffer, pH 1.2, simulated gastric fluid, pH 1.2, Hydrochloric acid buffer, pH after equilibration 2.81, read-out: Solubility Average (n = 2)) was 25000 µg/mL (≈ 62700 µM). It also gave a solubility ([9]; hydrochloric acid buffer, pH 1.2, simulated gastric fluid, pH 1.2, Hydrochloric acid buffer, pH after equilibration 2.81, read-out: Solubility Trial 1) of 25100 µg/mL (≈ 62700 µM), a solubility ([9]; hydrochloric acid buffer, pH 1.2, simulated gastric fluid, pH 1.2, Hydrochloric acid buffer, pH after equilibration 2.81, read-out: Solubility Trial 2) of 25000 µg/mL (≈ 62700 µM) and a solubility ([9]; hydrochloric acid buffer, pH 2, simulated gastric fluid, pH 2.0, Hydrochloric acid buffer, pH after equilibration 2.97, read-out: Solubility Average (n = 2)) of 2900 µg/mL (≈ 7270 µM). The solubility ([9]; hydrochloric acid buffer, pH 2, simulated gastric fluid, pH 2.0, Hydrochloric acid buffer, pH after equilibration 2.97, read-out: Solubility Trial 1) was 2930 µg/mL (≈ 7340 µM), the solubility ([9]; hydrochloric acid buffer, pH 2, simulated gastric fluid, pH 2.0, Hydrochloric acid buffer, pH after equilibration 2.97, read-out: Solubility Trial 2) was 2880 µg/mL (≈ 7210 µM) and the solubility ([9]; phosphate buffer, pH 6, aqueous buffer, pH 6.0, Phosphate buffer, pH after equilibration 5.96, read-out: Solubility Average (n = 2)) was 12 µg/mL (≈ 30 µM). For the same molecule, the solubility ([9]; phosphate buffer, pH 6, aqueous buffer, pH 6.0, Phosphate buffer, pH after equilibration 5.96, read-out: Solubility Trial 1) was 12 µg/mL (≈ 30 µM), the solubility ([9]; phosphate buffer, pH 6, aqueous buffer, pH 6.0, Phosphate buffer, pH after equilibration 5.96, read-out: Solubility Trial 2) was 12 µg/mL (≈ 30 µM) and the solubility ([9]; phosphate buffer, pH 6.8, aqueous buffer, pH 6.8, Phosphate buffer, pH after equilibration 6.79, read-out: Solubility Average (n = 2)) was 12 µg/mL (≈ 30 µM). The solubility ([9]; phosphate buffer, pH 6.8, aqueous buffer, pH 6.8, Phosphate buffer, pH after equilibration 6.79, read-out: Solubility Trial 1) was 11 µg/mL (≈ 27.5 µM), the solubility ([9]; phosphate buffer, pH 6.8, aqueous buffer, pH 6.8, Phosphate buffer, pH after equilibration 6.79, read-out: Solubility Trial 2) was 13 µg/mL (≈ 32.5 µM) and the solubility ([9]; phosphate buffer, pH 7.4, aqueous buffer, pH 7.4, Phosphate buffer, pH after equilibration 7.32, read-out: Solubility Average (n = 2)) was 13 µg/mL (≈ 32.5 µM). For the same molecule, the solubility ([9]; phosphate buffer, pH 7.4, aqueous buffer, pH 7.4, Phosphate buffer, pH after equilibration 7.32, read-out: Solubility Trial 1) was 13 µg/mL (≈ 32.5 µM), the solubility ([9]; phosphate buffer, pH 7.4, aqueous buffer, pH 7.4, Phosphate buffer, pH after equilibration 7.32, read-out: Solubility Trial 2) was 13 µg/mL (≈ 32.5 µM) and the solubility ([9]; water / aqueous solution, aqueous buffer, in an acceptable pH range for ophthalmic solution, read-out: water solubility) was 10 to 20 µg/mL (≈ 25 to 50.1 µM). The solubility ([9]; water, pH 7.17, water, Water, pH after equilibration 7.17, read-out: Solubility Average (n = 2)) was 9 µg/mL (≈ 22.5 µM), the solubility ([9]; water, pH 7.17, water, Water, pH after equilibration 7.17, read-out: Solubility Trial 1) was 9 µg/mL (≈ 22.5 µM) and the solubility ([9]; water, pH 7.17, water, Water, pH after equilibration 7.17, read-out: Solubility Trial 2) was 9 µg/mL (≈ 22.5 µM). The “incidence, quality, and tenacity of peritoneal adhesions” value [10] was “reduces”, the “expression of collagen, aSMA” value [11] was “decreases” and the “clinical symptoms of colitis” value [12] was “ameliorates”. For the same molecule, the “excessive collagen deposition and fibrosis in colitis tissues” value [12] was “inhibits”, the “overexpression of proinflammatory and profibrotic genes” value [12] was “suppresses” and the “disease relapse and survival” value [13] was “significantly delays disease relapse and prolongs survival”. The “Smad/TGF-β signaling, cell migration, invasion, and lung metastasis” value [14] was “inhibits”, the “effect of metal ions on thermal stability of EW-7197” value [15] was “neither aluminum ions nor iron ions affected the thermal stability” and the “expression of collagen, aSMA” value [16] was “decreases”. For the same molecule, the “expression of collagen, aSMA” value [17] was “decreases”, the EW-7197 dissolved ([18]; 4° C.) was “about 0.01%” and the EW-7197 dissolved ([18]; 25° C.) was “about 0.02%”. The “upper limit of concentration of EW-7197” value ([18]; formulation with 1% tyloxapol, 4% PEG4000, and 2% niacinamide) was “about 0.015%” and the “EW-7197 decomposed by light” value [19] was 1-5%.

In the case of `c1ccc(-c2[nH]ncc2-c2ccnc3ccccc23)nc1` [LY-364947], the “PVR development and subsequent tractional retinal detachment” value [20] is given as “prevents”.

In the case of `Cc1cccc(-c2nn3c(c2-c2ccnc4ccc(C(N)=O)cc24)CCC3)n1` [LY-2157299, reference compound], the “neovascular area in retina” value [21] is listed as “reduces” and the progression of melanoma [3] is listed as “suppress”.

In the case of `Cc1ccc(=O)n(-c2ccccc2)c1` [Pirfenidone], the “TGF-β-induced proliferation, migration, and EMT” value [22] is listed as “inhibits”.

In the case of `NC(=O)c1ccc(-c2nc(-c3ccc4c(c3)OCO4)c(-c3ccccn3)[nH]2)cc1` [SB-431542], the “levels of fibronectin and plasminogen activator inhibitor-1 (PAI-1)” value [23] is given as “reduces”, the “post-surgical scarring and fibrosis after GFS” value [24] is given as “decreases” and the level of fibronectin [25] is given as “reduces”.

For `Cc1cccc(-c2[nH]c(C(C)(C)C)nc2-c2ccc3c(c2)OCO3)n1` [SB-505124], the “ocular scarring following GFS” value [24] is given as “prevents”, the TFG-β activity [26] is given as “inhibited” and the bleb survival [26] is given as “promoted”.

Source: US20230047393A1 (EWHA DrugDesignHouse Co.,Ltd., priority 2021, published 2023)
